Data published in PMC9964281, “Identification of CBPA as a New Inhibitor of PD-1/PD-L1 Interaction” (International Journal of Molecular Sciences, 2023).

Target: T1, hPD-L1 (Homo sapiens, UniProt Q9NZQ7)
T1 construct: gene CD274; ectodomain (residues 18–239)
Assay: SPR (Biacore X100, CM5 chip with immobilized hPD-L1, steady-state fit)
Assay type: binding

T1 sequence (Q9NZQ7 18-239): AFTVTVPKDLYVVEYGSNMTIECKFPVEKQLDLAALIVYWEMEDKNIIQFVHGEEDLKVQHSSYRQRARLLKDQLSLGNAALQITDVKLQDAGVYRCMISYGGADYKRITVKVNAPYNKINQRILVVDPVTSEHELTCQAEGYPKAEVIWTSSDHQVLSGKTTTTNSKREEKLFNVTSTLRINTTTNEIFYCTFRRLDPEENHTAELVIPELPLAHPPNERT

## Clc1ccc(COc2ccc(CNCc3ccncc3)cc2)cc1 [CBPA, N-{4-[(4-chlorobenzyl)oxy]benzyl}-N-(4-pyridinylmethyl)amine]
  Kd: 48.1 µM
